Earlier results on two molecules are cited in US20220061318A1, “ANTIMICROBIAL PREVENTIVE NETTING” (University of Washington, priority 2020, published 2022).

Each structure is given as a SMILES string.

For this series the following is noted: photosensitizer, singlet oxygen generation; riboflavin value depends on the test conditions.

For `O=C1OC2(c3ccccc31)c1cc(I)c(O)c(I)c1Oc1c2cc(I)c(O)c1I` [erythrosine], the quantum yield entry was “around 0.6”.

For `CN(C)c1ccc2nc3ccc(=[N+](C)C)cc-3sc2c1` [Methylene blue, methylene blue], the quantum yield is given as 0.52.
